Laboratory results from patent US12077501B2, “Compounds and compositions for intracellular delivery of agents” (ModernaTX, Inc., priority 2017, dated 2024).

Key:
hEPO expression [1] = assay: hEPO expression in CD-1 mice compared with MC3; assay type: in vivo; conditions: intravenous, 0.5 mpk, Table 7e
From the text: (§1) In contrast, hEPO expression in rats induced by administration of a nanoparticle composition including a compound according to one of formulae (I), (Ia1)-(Ia6), (Ib), (II), (IIa), (III), and (IIIa) was substantially […] than that measured for MC3. […] Tables 7c and 7d show additional protein expressions and clearance data from compositions with various compounds disclosed herein as compared to with MC3. Tables 7e, 7f and 7g show hEPO expression data in CD-1 mice at a dose of 0.5 mpk.

[2] = pKa of nanoparticle compositions; assay type: physicochemical
[3] = Particle size and polydispersity index of nanoparticle compositions (Zetasizer Nano ZS); assay type: physicochemical
Protocol: A Zetasizer Nano ZS (Malvem Instruments Ltd, Malvem, Worcestershire, UK) can be used to determine the particle size, the polydispersity index (PDI) and the zeta potential of the nanoparticle compositions in 1×PBS in determining particle size and 15 mM PBS in determining zeta potential.

[4] = Encapsulation efficiency of RNA (QUANT-IT RIBOGREEN RNA assay); assay type: physicochemical
Protocol: For nanoparticle compositions including an RNA, a QUANT-IT™ RIBOGREEN® RNA assay (Invitrogen Corporation Carlsbad, CA) can be used to evaluate the encapsulation of an RNA by the nanoparticle composition. The samples are diluted to a concentration of approximately 5 μg/mL in a TE buffer solution (10 mM Tris-HCl, 1 mM EDTA, pH 7.5). 50 μL of the diluted samples are transferred to a polystyrene 96 well plate and either 50 μL of TE buffer or 50 μL of a 2% Triton X-100 solution is added to the wells. The plate is incubated at a temperature of 37° C. for 15 minutes. The RIBOGREEN® reagent is diluted 1:100 in TE buffer, and 100 μL of this solution is added to each well. The fluorescence intensity can be measured using a fluorescence plate reader (Wallac Victor 1420 Multilablel Counter; Perkin Elmer, Waltham, MA) at an excitation wavelength of, for example, about 480 nm and an emission wavelength of, for example, about 520 nm. The fluorescence values of the reagent blank are subtracted from that of each of the samples and the percentage of free RNA is determined by dividing the fluorescence intensity of the intact sample (without addition of Triton X-100) by the fluorescence value of the disrupted sample (caused by the addition of Triton X-100).

[5] = Lipid purity change after storage in EtOH for 96 h at 25 or 37 °C; assay type: physicochemical
Protocol: Nanoparticle compositions including a therapeutic and/or prophylactic agent can be optimized according to the selection of a compound according to one of formulae (I), (Ia1)-(Ia10), (Ib), (Ic), (Id), (Id1)-(Id10), (Ie), (Ie1)-(Ie6), (II), (IIa), (III), and (IIIa), the selection of additional lipids, the amount of each lipid in the lipid component, and the wt:wt ratio of the lipid component to the therapeutic and/or prophylactic agent, as described herein. Initial studies were performed to compare the delivery efficiency of nanoparticle compositions including various compounds according to one of formulae (I), (Ia1)-(Ia10), (Ib), (Ic), (Id), (Id1)-(Id10), (Ie), (Ie1)-(Ie6), (II), (IIa), (III), and (IIIa). The cationic lipid MC3 is a current standard in the art. Also determined was the stability of nanoparticles of the disclosure, i.e., the purity after storage in EtOH for 96h at 25° C. or 37° C. (Table Id).

[6] = Lipid clearance: % dose remaining in liver of CD-1 mice; assay type: in vivo; conditions: intravenous, 0.5 mg/kg, CD-1 mouse, Table 8a
From the text: as §1

hEPO expression [7] = assay: hEPO (miR126 + miR142) mRNA expression, Tables 8b-8e; assay type: in vivo; conditions: Table 8b
[8] = Table 1c, nanoparticle compositions
[9] = Table 1d, Formulated with lipid:Chol:DOPE:PEG 1 40:38.5:20:1.5

Row | SMILES | AUC (p/s*h) CD-1 mice 0.5 mpk (hEPO expression [1]) [p/s*h] | PDI [3, 8] | Size (nm) [3, 8] [nm] | EE (%) [4, 8] [%] | pKa ([2]; Table 1c) | % Dose Remaining 24 hr [6] [%] | also measured
1 | CCCCCCCCCN(CCCCCCCCC)CCN(CCCCCCCCC)CC(=O)N1CCN(C(=O)CN(CCCCCCCCC)CCCC(=O)OCCCCC)CC1 [Compound 45, Pentyl 4-((2-(4-(N-(2-(dinonylamino)ethyl)-N-nonylglycyl)piperazin-1-yl)-2-oxoethyl)(nonyl)amino)butanoate] | 6.98E+07 |  |  |  |  |  | 
2 | CCCCCCCCCN(CCCCCCCCC)CCC1CCN(C(=O)CN(CCCCCCCCC)CCN(CCCCCCCCC)CCCCCCCCC)CC1 [Compound 49, 2-((2-(Dinonylamino)ethyl)(nonyl)amino)-1-(4-(2-(dinonylamino)ethyl)piperidin-1-yl)ethan-1-one] | 1.59E+08 |  |  |  |  |  | 
3 | CCCCCCCCCN(CCCCCCCCC)CCC(=O)N1CCN(C(=O)CCN(CCCCCCCCC)CCN(CCCCCCCCC)CCCCCCCCC)CC1 [Compound 52, 3-(Dinonylamino)-1-(4-(3-((2-(dinonylamino)ethyl)(nonyl)amino)propanoyl)piperazin-1-yl)propan-1-one] | 7.78E+07 |  |  |  |  |  | 
4 | CCCCCCCCCN(CCCCCCCCC)CCN(CCCCCCCCC)CC(=O)N1CCN(C(=O)CN(CCCCCCCCC)CCCOC(=O)CCCCC)CC1 [Compound 56, 3-((2-(4-(N-(2-(Dinonylamino)ethyl)-N-nonylglycyl)piperazin-1-yl)-2-oxoethyl)(nonyl)amino)propyl hexanoate] | 4.52E+07 |  |  |  |  |  | pKa ([2]; Table 1b): 6.94
5 | CCCCCCCCCN(CCCCC(=O)OCCCC)CCC1CCN(C(=O)CN(CCCCCCCCC)CCN(CCCCCCCCC)CCCCCCCCC)CC1 [Compound 60, Butyl 5-((2-(1-(N-(2-(dinonylamino)ethyl)-N-nonylglycyl)piperidin-4-yl)ethyl)(nonyl)amino)pentanoate] | 4.86E+07 |  |  |  |  |  | pKa ([2]; Table 1b): 6.66
6 | CCCCCCCCCN(CCCOC(=O)CCCCC)CCC1CCN(C(=O)CN(CCCCCCCCC)CCN(CCCCCCCCC)CCCCCCCCC)CC1 [Compound 61, 3-((2-(1-(N-(2-(Dinonylamino)ethyl)-N-nonylglycyl)piperidin-4-yl)ethyl)(nonyl)amino)propyl hexanoate] | 6.29E+07 |  |  |  |  |  | pKa ([2]; Table 1b): 6.61
7 | CCCCCCCCCN(CCCC(=O)OCCCCC)CCN(CCCCCCCCC)CC(=O)N1CCN(C(=O)CN(CCCCCCCCC)CCCC(=O)OCCCCC)CC1 [Compound 71, Pentyl 4-(nonyl(2-(4-(N-nonyl-N-(2-(nonyl(4-oxo-4-(pentyloxy)butyl)amino)ethyl)glycyl)piperazin-1-yl)-2-oxoethyl)amino)butanoate] | 2.48E+07 |  |  |  |  |  | pKa ([2]; Table 1b): 6.44
8 | CCCCCCCCCCCCCCN(CCCOC(=O)CCCCCCCCC)CC(=O)N1CCN(C(=O)CN(CCCCCCCCC)CCN(CCCCCCCCC)CCCCCCCCC)CC1 [Compound 89, 3-((2-(4-(N-(2-(Dinonylamino)ethyl)-N-nonylglycyl)piperazin-1-yl)-2-oxoethyl)(tetradecyl)amino)propyl decanoate] | 1.36E+08 | 0.20 | 80.1 | 97.6 | 6.94 | 0.05 | Lipid % change purity in EtOH, 25° C., 96 h [5]: 2.3%; Lipid % change purity in EtOH, 37° C., 96 h [5]: 3.9%
9 | CCCCCCCCCCCCCCN(CCCCCCCC(=O)OCCCCC)CC(=O)N1CCN(C(=O)CN(CCCCCCCCC)CCN(CCCCCCCCC)CCCCCCCCC)CC1 [Compound 90, Pentyl 8-((2-(4-(N-(2-(dinonylamino)ethyl)-N-nonylglycyl)piperazin-1-yl)-2-oxoethyl)(tetradecyl)amino)octanoate] | 2.08E+07 | 0.19 | 81.5 | 98.4 | 6.83 | 3.93 | Lipid % change purity in EtOH, 25° C., 96 h [5]: 0.1%; Lipid % change purity in EtOH, 37° C., 96 h [5]: 9.6%
10 | CCCCCCCCCN(CCCCCCCCC)CCN(CCCCCCCCC)CC(=O)N1CCC(COC(=O)CN(CCCCCCCCC)CCCCCCCCC)C1 (stereo not drawn) [Compound 102, (1-(N-(2-(Dinonylamino)ethyl)-N-nonylglycyl)pyrrolidin-3-yl)methyl dinonylglycinate] | 6.34E+06 | 0.23 | 71.5 | 97.6 | 5.85 |  | Lipid % change purity in EtOH, 25° C., 96 h [5]: 14.8%; Lipid % change purity in EtOH, 37° C., 96 h [5]: 31.5%
11 | CCCCCCCCCN(CCCCCCCCC)CC(=O)N1CCN(C(=O)CN(CCCCCCCCC)CCCCCCCCC)CC1 [Compound 112, 1,1′-(piperazine-1,4-diyl)bis(2-(dinonylamino)ethan-1-one)] | 1.78E+04 | 0.22 | 73.5 | 97.1 | 6.14 | 46.37 | 
12 | CCCCCC/C=C\COC(=O)CCCN(CCCCCCCCCCCCCC)CC(=O)N1CCN(C(=O)CN(CCCCCCCCC)CCN(CCCCCCCCC)CCCCCCCCC)CC1 [Compound 118, (Z)-Non-2-en-1-yl 4-((2-(4-(N-(2-(dinonylamino)ethyl)-N-nonylglycyl)piperazin-1-yl)-2-oxoethyl)(tetradecyl)amino)butanoate] | 1.64E+08 | 0.20 | 82.3 | 97.8 | 6.7 | 55.92 | 
13 | CCCCCCCCCCCCCCN(CCCCCCCCCCCC(=O)OC)CCC1CCCN(C(=O)CN(CCCCCCCCC)CCN(CCCCCCCCC)CCCCCCCCC)C1 (stereo not drawn) [Compound 123, Methyl 12-((2-(1-(N-(2-(dinonylamino)ethyl)-N-nonylglycyl)piperidin-3-yl)ethyl)(tetradecyl)amino)dodecanoate] | 5.84E+07 |  |  |  | 6.51 | 3.75 | 
14 | CCCCCCCCCCCCCCN(CCCCCC(=O)OCCCCCCC)CCC1CCN(C(=O)CN(CCCCCCCCC)CCN(CCCCCCCCC)CCCCCCCCC)C1 (stereo not drawn) [Compound 125, Heptyl 6-((2-(1-(N-(2-(dinonylamino)ethyl)-N-nonylglycyl)pyrrolidin-3-yl)ethyl)(tetradecyl)amino)hexanoate] | 7.89E+06 |  |  |  | 6.89 | 2.74 | 
15 | CCCCCCCCCN(CCCCCCCCC)CCN(CCCCCCCCC)CC(=O)N1CCN(C(=O)CCCC(=O)OCCCCCCC)CC1 [Compound 144, Heptyl 5-(4-(N-(2-(dinonylamino)ethyl)-N-nonylglycyl)piperazin-1-yl)-5-oxopentanoate] |  | 0.19 | 83.3 | 97.2 | 7.59 | 3.25 | Lipid % change purity in EtOH, 25° C., 96 h [5]: 5.06%; Lipid % change purity in EtOH, 37° C., 96 h [5]: 7.63%
16 | CCCCCCCCCN(CCCCCCCCC)CCN(CCCCCCCCC)CC(=O)OCCOC(=O)CN(CCCCCCCCC)CCCCCCCCC [Compound 150, 2-((N-(2-(Dinonylamino)ethyl)-N-nonylglycyl)oxy)ethyl dinonylglycinate] | 2.29E+05 |  |  |  | 5.10 | 57.89 | 
17 | CCCCCCCCCN(CCCCCCCCC)CCN(CCCCCCCCC)CC(=O)N(C)CCCCN(C)C(=O)CN(CCCCCCCCC)CCCCCCCCC [Compound 159, 2-(dinonylamino)-N-(4-(2-((2-(dinonylamino)ethyl)(nonyl)amino)-N-methylacetamido)butyl)-N-methylacetamide] |  |  |  |  |  |  | PDI [3, 9]: 0.12; Size (nm) [3, 9]: 76.5 nm; EE (%) [4, 9]: 92.9%; AUC (hEPO expression [7]): 6.56e+07 pg·h/mL
